According to patent publication US12691100B2, “NMT inhibitor treatment of a senescence-associated disease or disorder of the liver” (Imperial College Innovations Limited, priority 2020, dated 2026):

Columns and labels:
[1] = tested on: HCT116 colon cancer cells; assay: Senolytic survival assay, chemotherapy-induced senescence in cancer cells; assay type: cell-based, human; settings: for Survival, senescent versus control cells: second experiment: doxorubicin 100 nM, etoposide 2 μM or cisplatin 100 μM, or DMSO, replenished after 72 h, 48 h more, FIGS. 7A-C
Method: IMR90 cells were used to generate inducible ER:RAS (hereinafter iRAS) cells to model Oncogene induced senescence (OIS), through retroviral infection of pLNC-ER:RAS-neo into IMR90 cells followed by selection with Neomycin. IMR90 cells containing the pLNC-ER:RAS plasmid backbone pLXSN were infected in parallel to assess leakiness in the pLNC-ER:RAS system. Treatment with 100 nM 4OHT (Sigma, in DMSO) was used to induce IMR90 ER:RAS cells to undergo oncogene induced senescence (OIS). Therapy induced senescence (TIS) was induced in IMR90 cells by treatment with 33 μM (50 ug/ml) bleomycin sulphate (Generon, HY-17565) for 24 hours, 20 μM palbociclib (Selleckchem, S1116) for 7 days or 100 nM doxorubicin (Cayman chemical, 15007) for 7 days. Senescence was induced in SK-HEP-1 cells by treatment with 2 μM etoposide (Sigma-Aldrich, E1383) for 7 days (FIGS. 4A-C). HCT-116 senescence was induced by 250 nM treatment with doxorubicin (Cayman chemical, 15007) for 48 hours followed by 5 days culture in media without chemotherapy (FIG. 5), or by treatment with 100 nM doxorubicin, 2 μM etoposide or 100 μM cisplatin for 3 days followed by 4 days culture in media without chemotherapy (FIGS. 6A-7C). Senescence was induced in MCF7 by 200 nM treatment with doxorubicin for 7 days, 2 μM etoposide for 7 days or 10 μM cisplatin for 7 days (FIGS. 8A-9C).
High-throughput microscopy survival assay—To assess senolytic effect of drugs, cells were cultured for 7 days, culture media was changed to DM0.5 media and drugs in DMSO were added (<5% v/v final concentration), drugs were replenished after 3 days if assay length was longer than 72 h. Wells were fixed in 4% PFA for 1 hour at day 10 to 14, washed 3 times with PBS and then stained with 1 μg/mL DAPI (w/v, PBS) for 10 minutes. Wells were then washed 3 times with PBS. Optionally plates could be stored at 4° C. for up to 2 weeks and DAPI stained. Image acquisition of DAPI stained cells was performed on an automated InCell Analyser 2000 (GE Healthcare®) and high-content analysis on the InCell Investigator 2.7.3 software used to quantify number of DAPI positive cells per well. […] Survival was measured as cell counts relative to DMSO treated quiescent or senescent cells.
In a first experiment, HCT116 colon cancer cells were treated with doxorubicin (to induce senescence), or DMSO (as a control). […] 7 days after adding the drugs with replenishment after 3 days, cells were fixed, imaged and cells numbers were quantified using high throughput microscopy. […]
In a second experiment, HCT116 were treated with doxorubicin, etoposide or cisplatin (to induce senescence) or DMSO (as a control). 7 days after treatment, BrdU incorporation (to assess cell division), SA-β-Galactosidase activity and p21^CIP1 expression (as markers of senescence) were analysed. […]

IMR90 ER:RAS cells = assay: Golgi dispersal by TGN46 staining, high throughput microscopy; assay type: cell-based, human; settings: 4OHT-induced senescent cells; 7 days after addition of the drugs; FIGS. 10A-B
Method: Immunofluorescence staining was carried out by first fixing wells of 96 well plate at desired timepoint for 1 hour using 4% PFA (w/v, in PBS) followed by washing 3 times with PBS. Wells were then permeabilized using 0.2% Triton® X-100 (v/v, PBS) for 10 min or with 0.5% Triton® X-100 (v/v, PBS) for COPI staining. Wells were then washed twice with PBS to halt permeabilization and then non-specific antibody binding blocked by incubation with a blocking solution for 1 hour at RT. Blocking solution contained 1% BSA (w/v, PBS) supplemented with 0.4% Fish Skin Gelatin (v/v, PBS). Primary antibodies were diluted in respective blocking solution (see ‘Antibodies’ for dilutions), blocking solution removed from well and incubated with primary antibody solution for 1 hour at RT. For BrdU staining primary antibody solution is supplemented with 0.5 U/ul DNase (Sigma) and 1 mM MgCl2 and incubation times reduced to 30 minutes. […]
High content image analysis was carried out using the InCell Investigator 2.7.3 software (GE Healthcare®). […] Quantification for nuclear staining was measured as average pixel intensity (grey scale) for the wavelength of fluorophore across the area of the nuclear mask. Cytoplasmic staining quantification was of either the average pixel intensity or the coefficient of variance of pixel intensities within collar area. […]

SMILES	Survival (cell counts relative to DMSO), senescent versus control cells ([1]; first experiment: doxorubicin or DMSO, compound added 7 days after induction, read 7 days later, FIG. 5)	Survival, senescent versus control cells [1]	Golgi dispersal (TGN46 distribution) (IMR90 ER:RAS cells)
Cc1nn(C)c(C)c1CCOc1c(-c2ccc3c(c2)c(CN(C)C)nn3C)ccc(F)c1F [Compound 1, 1-(5-(3,4-difluoro-2-(2-(1,3,5-trimethyl-1H-pyrazol-4-yl)ethoxy)phenyl)-1-methyl-1H-indazol-3-yl)-N,N-dimethylmethanamine]	preferentially kills cancer cells that undergo senescence after being treated with doxorubicin	preferentially kill cancer cells that undergo senescence after being treated with doxorubicin, etoposide or cisplatin	selectively caused Golgi dispersal on senescent cells
Cc1c(NS(=O)(=O)c2c(Cl)cc(-c3ccnc(N4CCNCC4)c3)cc2Cl)c(CC(C)C)nn1C [Compound 2]		preferentially kill cancer cells that undergo senescence after being treated with doxorubicin, etoposide or cisplatin	selectively caused Golgi dispersal on senescent cells
